PubChem BioAssay AID179 (DTP/NCI, 2004)
pEC50, pIC50: −log10 of the molar value. “And” between values parts separate entries of the source, which are not always exact repeats. Equal values may be shown once. The source made the active and inactive calls.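 How the source made its calls: active means compounds giving half or more protection of infected cells from virus-caused growth loss, again on retest; inactive means the rest.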

System: CEM cells HIV-1 protection, formazan growth assay
Assay: NCI AIDS Antiviral Assay
Conditions: for pIC50: measured here: growth of uninfected CEM cells
Procedure, shortened: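 Category rules: moderately active means at least 50% protection on retest, and confirmed active means 100% protection reproducibly. The underlying data came from a formazan growth assay in HIV-1-infected CEM cells.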

| SMILES | pEC50 | pIC50 | outcome |
| --- | --- | --- | --- |
| CC(C)=CC[C@]12CCN[C@H]1N(S(=O)(=O)c1ccccc1)c1ccccc12 | < 3.70 | 4.51 |  |
| O=C1c2ccncc2C(=O)c2c1[nH]c1ccccc21 | < 3.70 | 5.50 |  |
| Cn1cnc([N+](=O)[O-])c1Sc1nnc(-c2ccc(Cl)cc2)n1C | < 3.43 | 5.52 |  |
| Cc1nc(Nc2nnc(-c3cc([N+](=O)[O-])cc([N+](=O)[O-])c3C)o2)sc1C(=O)CC(=O)Cc1nc2ccc(Cl)cc2[nH]c1=O | < 4.24 | < 4.24 |  |
| NC(=O)c1ccc(NCC2=CC(=O)C=CC2=O)cc1 | < 4.39 | 4.76 |  |
| [Cu+2].[O-]/N=C/c1ccc(O)cc1[O-].[O-]/N=C/c1ccc(O)cc1[O-] | < 4.57 | 4.88 |  |
| COc1ccc(OC)c2c(OC)cc(C)cc12 | < 3.70 | 4.05 |  |
| CCOC(=O)/C(=C/c1ccc(Br)cc1)C(=O)c1ccccc1 | < 4.98 | < 4.98 |  |
| O=S(=O)(O)c1cc(O)c(N=NC2S(=O)(=O)OCCOS2(=O)=O)c2ccccc12 | < 3.70 | 4.11 |  |
| CC(=O)O[C@@H]1C(C2CCCCC2)C=[N+]([O-])O[C@@H]1OC1CCCC1(c1ccccc1)c1ccccc1 (some centres undefined) | < 3.70 | 5.77 |  |
| CC1=C2CC/C(C)=C/CCC3(C)OC3CC/C(C)=C/C2OC1=O (centres undefined) | < 3.70 | < 3.70 |  |
| CN/N=C(/CCN1CCCC1)CC(c1ccccc1)c1c(O)c2ccccc2oc1=O (centres undefined) | < 4.03 | 4.13 |  |
| O=S1(=O)c2ccccc2N(O)C2=NCCN21 | < 3.26 | 4.04 |  |
| Cc1cc(Cl)cc2c1NC(=O)C2(O)C(C(=O)c1ccccc1)c1ccccc1 (centres undefined) | < 4.04 | < 4.04 |  |
| COc1ccc2ccccc2c1Br | < 3.70 | < 3.70 |  |
| COc1ccc(NC(=O)CC(=O)N2N=C(c3ccccc3)C(N=Nc3ccc(S(=O)(=O)CCOS(=O)(=O)O)cc3)C2=O)cc1 (centres undefined) | < 3.70 | < 3.70 |  |
| CC1=C(C)C(=O)C(C2=CC(=O)c3ccccc3C2=O)=C(C2=CC(=O)c3ccccc3C2=O)C1=O | < 3.70 | 5.47 |  |
| Cn1c(=O)c2[nH]c(=O)c(=O)[nH]c2n(C)c1=O | < 3.70 | < 3.70 |  |
| O=CCc1c2c(nc3ccccc13)C(=O)c1ccccc1C2=O | < 4.70 | 5.10 |  |
| CSC1(CC(=O)N(C)C)C(=O)Nc2ccccc21 (centres undefined) | < 3.70 | < 3.70 |  |
| O=C1N=NC2=C1c1c3ccccc3c(O)n1CC2 | < 3.70 | 3.78 |  |

| SMILES | pEC50 | pIC50 | outcome |
| --- | --- | --- | --- |
| Cc1cc(-c2cccs2)oc(=O)c1NC(=O)c1cnccn1 | < 3.70 | < 3.70 |  |
| CC(C)N([PH2+]N(C(C)C)C(C)C)C(C)C.[C-]#[O+].[C-]#[O+].[C-]#[O+].[C-]#[O+].[C-]#[O+].[Mo] | < 4.11 | < 4.11 |  |
| C=C(CO)[C@H]1Oc2ccc(C(C)=O)cc2[C@@H]1O | < 3.70 | < 3.70 |  |
| Nn1c(N=Nc2c(O)[nH]c3c(Cl)cc(Cl)cc23)n[nH]c1=S | < 4.85 | < 4.85 |  |
| Cc1cccc(/C=N/NC(=S)NC(C)(C)C)n1 | < 3.70 | 4.74 |  |
| CC(=O)c1cccc(NC(=O)Nc2cccc(C)n2)c1 | < 4.25 | 5.16 |  |
| Cn1c(N)c(N=Nc2ccc(S(=O)(=O)Nc3nccs3)cc2)c(=O)n(C)c1=O |  |  | inactive |
| CCn1c(=O)c2c3ccc(OC(C)=O)cc3[nH]c2c2ccc(OC(C)=O)cc21 | < 3.70 | 4.57 |  |
| COc1ccc(C2C(Cl)C(=O)N2n2cnc3ccccc3c2=O)cc1OC (centres undefined) | < 3.47 | 4.33 |  |
| CC(=O)O[C@H]1CCC2[C@@H]3CC[C@]4(C)CC(=O)C=C[C@]4(C)C3CC[C@@]21C (some centres undefined) |  |  | inactive |
| N#Cc1c(-c2ccccc2)cc(-c2ccccc2)n(C2OC(CO)C(O)C(O)C2O)c1=S (centres undefined) | < 3.70 | 4.82 and 4.57 |  |
| CC(=O)c1c(-c2ccccc2)c(-c2ccc(OCCN(C)C)cc2)n2ccccc12 | < 3.70 | 5.12 |  |
| Cc1ccccc1-n1c(=S)n(-c2ccc(Cl)cc2)c2nc3ccccc3nc1/c2=N/Nc1cc(Cl)ccc1Cl | < 3.70 | 3.76 |  |
| O=c1c([Se]c2coc3ccccc3c2=O)coc2ccccc12 | < 4.99 | < 4.99 |  |
| CCc1cccc(CC)c1Nc1nc(-c2ccccc2-c2ccccc2)cs1 | < 3.70 | < 3.70 |  |
| O=C1CC2C=CC1C2CO (centres undefined) |  |  | inactive |
| CCC1(CCCC=C(c2cc(Cl)c(OC)c(C(=O)OC)c2)c2cc(Cl)c(OC)c(C(=O)OC)c2)OCCO1 | < 3.70 | 3.83 |  |
| CC(=O)N/N=C(/C)c1cccs1 | < 3.70 | < 3.70 |  |
| CC(C)(C)C1=CC(=Nc2c([N+](=O)[O-])cc([N+](=O)[O-])cc2[N+](=O)[O-])C=C(C(C)(C)C)C1=O | < 4.94 | < 4.94 |  |
| N#CC(C#N)=C1CCN2CCCc3cccc1c32 | < 3.70 | 3.89 |  |
